This is an account of results in patent US8309558B2, “Compounds for the treatment of hepatitis C” (Bristol-Myers Squibb Company, priority 2008, dated 2012).

Each structure is given as a SMILES string.

Assay [1] addresses T1, HCV NS5B RdRp genotype 1b (Hepatitis C virus genotype 1b, UniProt Q9WMX2).
T1 construct: The protein was expressed with an 18 amino acid C-terminal truncation to enhance the solubility; made in house; host or cells: E. coli BL21(DE3), pET21a vector
As to the kind of experiment: Standard HCV NS5B RdRp enzyme assay. The note with it: Table 1b; HCV NS5B RdRp genotype 1b; read-out: IC50. It is filed as biochemical. In short, it runs like this: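 Radiometric SPA measuring 3H-UMP incorporation on polyA/biotin-oligo-dT12 (6 nM/180 nM), 0.29 μM total UTP. Enzyme: NS5B 1b lacking last 18 residues, 28 nM final, 30° C for 60 min in 20 mM Hepes pH 7.5, 2.5 mM MgCl2, 2% DMSO. IC50 from seven-point curves.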

Another assay has as its system HCV replicon cells. As to the kind of experiment: HCV replicon FRET / luciferase assay (96-well plates). The conditions noted are these: Hepatitis C virus, Table 1b; HCV replicon; read-out: EC50. It is filed as cell-based. In short, it runs like this: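 Readout was NS3 protease cleavage of an EDANS/DABCYL FRET peptide (20 μM final) in lysed HCV replicon cells, or Renilla luciferase in reporter replicons. Background came from wells with the highest level of control protease inhibitor. EC50 marked the concentration giving 50% signal reduction.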
A general note: A replicon is a self-replicating genome or part of one, used to study replication in cells.

T1 sequence (Q9WMX2 2420-2992): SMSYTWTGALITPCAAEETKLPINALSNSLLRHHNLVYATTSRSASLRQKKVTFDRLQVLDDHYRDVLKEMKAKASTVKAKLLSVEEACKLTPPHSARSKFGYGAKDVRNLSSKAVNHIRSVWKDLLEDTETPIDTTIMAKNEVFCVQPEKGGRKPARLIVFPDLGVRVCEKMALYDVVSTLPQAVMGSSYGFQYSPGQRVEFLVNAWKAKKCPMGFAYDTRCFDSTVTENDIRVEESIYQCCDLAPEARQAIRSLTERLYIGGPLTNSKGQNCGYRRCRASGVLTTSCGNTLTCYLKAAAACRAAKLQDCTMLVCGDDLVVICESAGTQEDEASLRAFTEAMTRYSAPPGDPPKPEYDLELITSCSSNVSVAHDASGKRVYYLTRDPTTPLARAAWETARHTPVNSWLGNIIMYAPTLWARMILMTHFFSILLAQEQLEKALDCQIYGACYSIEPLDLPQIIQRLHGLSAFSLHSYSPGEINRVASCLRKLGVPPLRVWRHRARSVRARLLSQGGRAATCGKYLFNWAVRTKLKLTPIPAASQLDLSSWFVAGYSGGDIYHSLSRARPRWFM

The term IC50 denotes the concentration that inhibits the measured activity by half. The EC50 is the concentration needed to bring the measured effect to its halfway point. For `CNC(=O)c1c(-c2ccc(F)cc2)oc2ccc(-c3ccc(-c4cncc5ccccc45)c(C(=O)NCC(C)C)c3)cc12`, the IC50 in assay [1] fell in the range of 250 to 1000 nM. For the same compound, the EC50 in the assay on HCV replicon cells is under 250 nM.
Turning to `CNC(=O)c1c(-c2ccc(F)cc2)oc2ccc(-c3ccc(-c4cccnc4OC)c(C(=O)NCC(C)C)c3)cc12`, the IC50 in assay [1] is under 250 nM. The EC50 in the assay with HCV replicon cells was under 250 nM.
Turning to `CNC(=O)c1c(-c2ccc(F)cc2)oc2ccc(-c3ccc(-c4ccc(C(N)=O)cc4)c(C(=O)NCC(C)C)c3)cc12`, in assay [1], the IC50 is under 250 nM. Moreover, the EC50 in the assay on HCV replicon cells is over 10000 nM.
In the same order, the values of `CNC(=O)c1c(-c2ccc(F)cc2)oc2ccc(-c3ccc(-c4cncc(C#N)c4)c(C(=O)NCC(C)C)c3)cc12` are under 250 nM and 250 to 1000 nM.
With `CNC(=O)c1c(-c2ccc(F)cc2)oc2ccc(-c3cc(C(=O)NC4(c5nnc(C6CC6)[nH]5)CC4)ccc3C)cc12`, the IC50 in assay [1] is under 250 nM. Further, the EC50 with HCV replicon cells was under 250 nM.
As for `CNC(=O)c1c(-c2ccccc2)oc2ccc(-c3cc(C(=O)NC4(c5nnc(-c6ccccc6)[nH]5)CC4)ccc3C)cc12`, in assay [1], the IC50 was under 250 nM. In addition, the EC50 in the assay with HCV replicon cells is under 250 nM.
Regarding `CNC(=O)c1c(-c2ccc(F)cc2)oc2ccc(-c3cc(C(=O)NC4(c5ccccn5)CC4)c(OC)cc3C)cc12`, the IC50 in assay [1] was under 250 nM. Further, the EC50 in the assay on HCV replicon cells is under 250 nM.
Regarding `CNC(=O)c1c(-c2ccc(F)cc2)oc2ccc(-c3cc(C(=O)NC4(c5ccccn5)CC4)c(F)cc3Cl)cc12`, the IC50 in assay [1] is under 250 nM. Further, the EC50 in the assay on HCV replicon cells is under 250 nM.
As to `CNC(=O)c1c(-c2ccc(F)cc2)oc2ccc(-c3cncc(C(=O)NC(C)(C)C)c3)cc12`, the IC50 in assay [1] was under 250 nM. In addition, the EC50 with HCV replicon cells was under 250 nM.
In the case of `CNC(=O)c1c(-c2ccc(F)cc2)oc2ccc(-c3cc(OC(C)C)cc(C(=O)NCC(C)C)c3)cc12`, in assay [1], the IC50 lay in the range of 1000 to 10000 nM. Besides, in the assay on HCV replicon cells, the EC50 is over 10000 nM.
On to `CNC(=O)c1c(-c2ccc(F)cc2)oc2ccc(-c3cc(C(=O)NCC(C)C)ccc3OC(F)(F)F)cc12`, for which the IC50 in assay [1] lay within 250 to 1000 nM. Besides, the EC50 with HCV replicon cells was over 10000 nM.
Regarding `CNC(=O)c1c(-c2ccc(F)cc2)oc2ccc(-c3cc(C(=O)NC4(c5ccccn5)CC4)c(F)cc3O)cc12`, the IC50 in assay [1] was under 250 nM. In the assay with HCV replicon cells, the EC50 was in the range of 250 to 1000 nM.
In the same order, the values of `CNC(=O)c1c(-c2ccccc2)oc2ccc(-c3cc(C(=O)NC4(c5nc(-c6ccccn6)no5)CC4)ccc3C)cc12` are under 250 nM and under 250 nM.
The matching figures for `CNC(=O)c1c(-c2ccc(F)cc2)oc2ccc(-c3cc(C(=O)NC4(c5ccccc5)CC4)ccc3OC(F)(F)F)cc12`: 250 to 1000 nM and under 250 nM.
As for `CNC(=O)c1c(-c2ccc(F)cc2)oc2ccc(-c3cc(C(=O)NC4(c5ccccn5)CC4)ccc3OC(F)(F)F)cc12`, the IC50 in assay [1] was in the range of 250 to 1000 nM. Further, the EC50 with HCV replicon cells was under 250 nM.
As to `CNC(=O)c1c(-c2ccc(F)cc2)oc2ccc(-c3cc(C(=O)NC4(c5nc(C)no5)CC4)c(OC)cc3Cl)cc12`, the IC50 in assay [1] was under 250 nM. Also, in the assay on HCV replicon cells, the EC50 is under 250 nM.
In the case of `CNC(=O)c1c(-c2ccc(F)cc2)oc2ccc(-c3cc(C(=O)NC4(c5ccccn5)CC4)c(F)cc3C)cc12`, the IC50 in assay [1] was under 250 nM. The EC50 with HCV replicon cells was under 250 nM.
Turning to `CNC(=O)c1c(-c2ccc(F)cc2)oc2ccc(-c3cc(C(=O)NC4(c5nc(C6CC6)no5)CC4)ccc3C)cc12`, in assay [1], the IC50 was under 250 nM. The EC50 with HCV replicon cells was under 250 nM.
On to `CNC(=O)c1c(-c2ccc(F)cc2)oc2ccc(-c3ccc(-c4cccc(OC)c4F)c(C(=O)NCC(C)C)c3)cc12`, for which, in assay [1], the IC50 is over 10000 nM. Further, in the assay on HCV replicon cells, the EC50 was in the range of 250 to 1000 nM.
As for `CNC(=O)c1c(-c2ccc(F)cc2)oc2ccc(-c3ccc(-c4cc(F)cc(F)c4)c(C(=O)NCC(C)C)c3)cc12`, in assay [1], the IC50 was 250 to 1000 nM. The EC50 with HCV replicon cells is under 250 nM.
In the same order, the values of `C#CCNC(=O)C1(NC(=O)c2ccc(C)c(-c3ccc4oc(-c5ccc(F)cc5)c(C(=O)NC)c4c3)c2)CC1` are under 250 nM and under 250 nM.
For the compound `CNC(=O)c1c(-c2ccc(C)cc2)oc2ccc(-c3cc(C(=O)NC4(c5nc(COC)no5)CC4)ccc3C)cc12`, the IC50 in assay [1] was under 250 nM. The EC50 in the assay with HCV replicon cells is under 250 nM.
